Measured values: patent US6984649B1, “Pyridine derivatives” (Bayer Aktiengesellschaft, priority 2000, dated 2006)
Counter-ions that a name gives are not always drawn.

Tested on: A549 human lung epithelium cell line
Experiment: RANTES production in response to TNF-α from A549 cells
Assay type: cell-based
Settings: A549 cells, 100 ng/ml TNF-α, read-out: Cellular activity grade (A549) (Cellular IC50)
Outline: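 Cells (4×10^4/well) in D-MEM/10% FCS preincubated 1 h at 37 °C with compound in 1% DMSO, then stimulated with 100 ng/ml TNF-α for 24 h. Supernatant RANTES quantified by Eu-labelled sandwich immunoassay (time-resolved fluorescence, ex 340/em 615 nm) against recombinant human RANTES standard.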

| IC50 | SMILES |
| --- | --- |
| < 1000 nM | N#Cc1c(C2CCCNC2)cc(-c2c(O)cccc2OCC2CCCO2)nc1N (centres unmarked) [Example 2-81] |

Same assay, conditions: Homo sapiens, A549, A549 cells, 100 ng/ml TNF-α, read-out: Cellular activity grade (A549) (Cellular IC50)

| IC50 | SMILES |
| --- | --- |
| 1000 to 10000 nM | Cc1cccc(-c2cc(C3CCCNC3)c(C#N)c(N)n2)c1O (centres unmarked) [Example 1-17] |
| < 1000 nM | NC(=O)C1Cc2c(C3CCNCC3)cc(-c3c(O)cccc3OCC3CC3)nc2NC1=O (centres unmarked) [Example 26-2, 7-[2-(cyclopropylmethoxy)-6-hydroxyphenyl]-2-oxo-5-(4-piperidinyl)-1,2,3,4-tetrahydro-1,8-naphthyridine-3-carboxamide hydrochloride] |
| < 1000 nM | CCCOc1cccc(O)c1-c1cc(C2CCNCC2)c(C#N)c(N)n1 [Example 2-67] |
| < 1000 nM | N#Cc1c(C2CCCNC2)cc(-c2c(O)cccc2OCC2CCC2)nc1N (centres unmarked) [Example 2-62] |
| < 1000 nM | CC(C)COc1cccc(O)c1-c1cc(C2CCNCC2)c(C#N)c(N)n1 [Example 2-71] |
| < 1000 nM | N#Cc1c(C2CCCNC2)cc(-c2c(O)cccc2OCC2CCCCO2)nc1N (centres unmarked) [Example 2-79] |
| < 1000 nM | N#Cc1c(C2CCCNC2)cc(-c2c(O)cccc2OCc2ccc([N+](=O)[O-])cc2)nc1N (centres unmarked) [Example 2-14] |
| 1000 to 10000 nM | CS(=O)(=O)N1CCCC(c2cc(-c3ccccc3O)nc(N)c2C#N)C1 (centres unmarked) [Example 1-42] |
| 1000 to 10000 nM | N#Cc1c(CC(N)c2ccccc2)cc(-c2ccccc2O)nc1N (centres unmarked) [Example 1-35] |
| > 10000 nM | CCc1cc(-c2ccccc2O)nc(N)c1C#N [Example 1-39] |
| < 1000 nM | N#Cc1c(C2CCCNC2)cc(-c2c(O)cccc2OCC2CCCO2)nc1N (centres unmarked) [Example 2-80] |
| < 1000 nM | CCOC(=O)C1Cc2c(C3CCCNC3)cc(-c3ccccc3O)nc2NC1=O (centres unmarked) [Example 26-1, ethyl 7-(2-hydroxyphenyl)-2-oxo-5-(3-piperidinyl)-1,2,3,4-tetrahydro-1,8-naphthyridine-3-carboxylate] |
| 1000 to 10000 nM | N#Cc1c(C2CCCNC2)cc(-c2c(O)cccc2OCCN2CCCC2)nc1N (centres unmarked) [Example 2-87] |
| 1000 to 10000 nM | N#Cc1c(C2CCCNC2)cc(-c2c(O)cccc2OCc2ccccc2Cl)nc1N (centres unmarked) [Example 2-17] |
| < 1000 nM | CCCCCCOc1cccc(O)c1-c1cc(C2CCNCC2)c(C#N)c(N)n1 [Example 2-76] |
| 1000 to 10000 nM | N#Cc1c(C2CCCNC2)cc(-c2c(O)cccc2OCc2cccc([N+](=O)[O-])c2)nc1N (centres unmarked) [Example 2-13] |
| 1000 to 10000 nM | NC(=O)c1cc2c(C3CCNCC3)cc(-c3c(O)cccc3OCC3CC3)nc2[nH]c1=O [Example 25-3, 7-[2-(cyclopropylmethoxy)-6-hydroxyphenyl]-2-oxo-5-(4-piperidinyl)-1,2-dihydro-1,8-naphthyridine-3-carboxamide hydrochloride] |
| 1000 to 10000 nM | CN(C)CCOc1cccc(O)c1-c1cc(C2CCCNC2)c(C#N)c(N)n1 (centres unmarked) [Example 2-85] |
| < 1000 nM | Cc1ccc(COc2cccc(O)c2-c2cc(C3CCCNC3)c(C#N)c(N)n2)cc1 (centres unmarked) [Example 2-08] |
| < 1000 nM | O=c1[nH]c2nc(-c3c(O)cccc3OCC3CC3)cc(C3CCCNC3)c2cc1F (centres unmarked) [Example 25-2, 7-[2-(cyclopropylmethoxy)-6-hydroxyphenyl]-3-fluoro-5-(3-piperidinyl)-1,8-naphthyridin-2(1H)-one hydrochloride] |
| < 1000 nM | O=c1ccc2c(C3CCCNC3)cc(-c3c(O)cccc3OCC3CC3)nc2[nH]1 (centres unmarked) [Example 25-4, 7-[2-(cyclopropylmethoxy)-6-hydroxyphenyl]-5-(3-piperidinyl)-1,8-naphthyridin-2(1H)-one hydrochloride] |
| 1000 to 10000 nM | N#Cc1c(C2CCCNC2)cc(-c2c(O)cccc2OCCN2CCCCC2)nc1N (centres unmarked) [Example 2-83] |
| 1000 to 10000 nM | N#Cc1c([C@H](N)Cc2ccccc2)cc(-c2ccccc2O)nc1N [Example 1-34] |
| < 1000 nM | CC(C)(C)C(=O)COc1cccc(O)c1-c1cc(C2CCCNC2)c(C#N)c(N)n1 (centres unmarked) [Example 2-77] |

| IC50 | SMILES |
| --- | --- |
| < 1000 nM | N#Cc1c(C2CCCNC2)cc(-c2c(O)cccc2OCC2CC2)nc1N (centres unmarked) [Example 2-65] |
| < 1000 nM | N#Cc1c(C2CCNCC2)cc(-c2ccccc2O)nc1N [Example 1-13] |
| < 1000 nM | CS(=O)(=O)N1Cc2c(C3CCCNC3)cc(-c3c(O)cccc3OCC3CC3)nc2NC1=O (centres unmarked) [Example 24-4, 7-[2-(cyclopropylmethoxy)-6-hydroxyphenyl]-3-(methylsulfonyl)-5-(3-piperidinyl)-3,4-dihydropyrido[2,3-d]pyrimidin-2(1H)-one hydrochloride] |
| 1000 to 10000 nM | Cc1cccc(O)c1-c1cc(C2CCCNC2)c(C#N)c(N)n1 (centres unmarked) [Example 1-21] |
| 1000 to 10000 nM | Cc1cccc(COc2cccc(O)c2-c2cc(C3CCCNC3)c(C#N)c(N)n2)c1 (centres unmarked) [Example 2-07] |
| 1000 to 10000 nM | N#Cc1c(C2CCCNC2)cc(-c2c(O)cccc2OCc2cccc(Br)c2)nc1N (centres unmarked) [Example 2-11] |
| 1000 to 10000 nM | N#Cc1c([C@@H](N)Cc2ccccc2)cc(-c2ccccc2O)nc1N [Example 1-25] |
| 1000 to 10000 nM | N#Cc1c(C2CCCCN2)cc(-c2ccccc2O)nc1N (centres unmarked) [Example 1-14] |
| 1000 to 10000 nM | C[C@H](N)c1cc(-c2ccccc2O)nc(N)c1C#N [Example 1-32] |
| < 1000 nM | N#Cc1c(C2CCCNC2)cc(-c2c(O)cccc2OCc2ccc(Cl)cc2)nc1N (centres unmarked) [Example 2-19] |
| < 1000 nM | N#Cc1c(CCN)cc(-c2ccccc2O)nc1N [Example 1-37] |
| 1000 to 10000 nM | N#Cc1c(C2CCCNC2)cc(-c2c(O)cccc2OCc2c(Cl)cccc2Cl)nc1N (centres unmarked) [Example 2-20] |
| < 1000 nM | CC(C)(C)C(=O)COc1cccc(O)c1-c1cc(C2CCNCC2)c(C#N)c(N)n1 [Example 2-78] |
| < 1000 nM | N#Cc1c(C2CCC(N)CC2)cc(-c2ccccc2O)nc1N (centres unmarked) [Example 1-22] |
| < 1000 nM | N#Cc1c(C2CCCNC2)cc(-c2c(O)cccc2OCCC2CCCCC2)nc1N (centres unmarked) [Example 2-61] |
| < 1000 nM | CCCCCOc1cccc(O)c1-c1cc(C2CCNCC2)c(C#N)c(N)n1 [Example 2-69] |
| < 1000 nM | CCCN(CCC)C1CCCC(c2cc(-c3ccccc3O)nc(N)c2C#N)C1 (centres unmarked) [Example 1-43] |
| 1000 to 10000 nM | N#Cc1c(C2CCC(C(=O)O)CC2)cc(-c2ccccc2O)nc1N (centres unmarked) [Example 1-38] |
| 1000 to 10000 nM | N#Cc1c(C2CNCCN2)cc(-c2ccccc2O)nc1N (centres unmarked) [Example 1-15] |
| 1000 to 10000 nM | N#Cc1c(C2CCCNC2)cc(-c2c(O)cccc2OCc2ccccc2[N+](=O)[O-])nc1N (centres unmarked) [Example 2-12] |
| < 1000 nM | N#Cc1c(C2CCNCC2)cc(-c2c(O)cccc2OCCC2CCCCC2)nc1N [Example 2-70] |
| > 10000 nM | CCCC[C@H](N)c1cc(-c2ccccc2O)nc(N)c1C#N [Example 1-28] |
| < 1000 nM | CC(C)CCCOc1cccc(O)c1-c1cc(C2CCNCC2)c(C#N)c(N)n1 [Example 2-66] |
| 1000 to 10000 nM | N#Cc1c(C2CCCN(C(=O)CCN3CCCCC3)C2)cc(-c2ccccc2O)nc1N (centres unmarked) [Example 1-41] |

| IC50 | SMILES |
| --- | --- |
| 1000 to 10000 nM | N#Cc1c(C2CCCNC2)cc(-c2c(O)cccc2OCc2cccc(Cl)c2)nc1N (centres unmarked) [Example 2-18] |
| < 1000 nM | O=C1CCc2c(C3CCCNC3)cc(-c3ccccc3O)nc2N1 (centres unmarked) [Example 27-1, 7-(2-hydroxyphenyl)-5-(3-piperidinyl)-3,4-dihydro-1,8-naphthyridin-2(1H)-one hydrochloride] |
| > 10000 nM | N#Cc1c([C@@H](N)CCc2ccccc2)cc(-c2ccccc2O)nc1N [Example 1-29] |
| < 1000 nM | CCOC(=O)N1Cc2c(C3CCCNC3)cc(-c3c(O)cccc3OCC3CC3)nc2NC1=O (centres unmarked) [Example 24-2, ethyl 7-[2-(cyclopropylmethoxy)-6-hydroxyphenyl]-2-oxo-5-(3-piperidinyl)-1,4-dihydropyrido[2,3-d]pyrimidine-3(2H)-carboxylate hydrochloride] |
| 1000 to 10000 nM | CCCCCCCOc1cccc(O)c1-c1cc(C2CCCNC2)c(C#N)c(N)n1 (centres unmarked) [Example 2-64] |
| 1000 to 10000 nM | COc1ccc(C[C@H](N)c2cc(-c3ccccc3O)nc(N)c2C#N)cc1 [Example 1-26] |
| 1000 to 10000 nM | N#Cc1c([C@H](Cc2ccccc2)NC(=O)CCN2CCCCC2)cc(-c2ccccc2O)nc1N [Example 1-40] |
| < 1000 nM | C=CCOc1cccc(O)c1-c1cc(C2CCNCC2)c(C#N)c(N)n1 [Example 2-74] |
| < 1000 nM | N#Cc1c(C2CCCNC2)cc(-c2cccc(F)c2O)nc1N (centres unmarked) [Example 1-19] |
| < 1000 nM | CCOc1cccc(O)c1-c1cc(C2CCNCC2)c(C#N)c(N)n1 [Example 2-75] |
| 1000 to 10000 nM | CC(C)[C@H](N)c1cc(-c2ccccc2O)nc(N)c1C#N [Example 1-33] |
| 1000 to 10000 nM | N#Cc1c(C2CCCNC2)cc(-c2ccc(O)cc2O)nc1N (centres unmarked) [Example 1-18] |
| 1000 to 10000 nM | N#Cc1c(C2CCCNC2)cc(-c2c(O)cccc2OCCN2CCOCC2)nc1N (centres unmarked) [Example 2-84] |
| < 1000 nM | N#Cc1ccc(COc2cccc(O)c2-c2cc(C3CCCNC3)c(C#N)c(N)n2)cc1 (centres unmarked) [Example 2-16] |
| 1000 to 10000 nM | CCOC(=O)c1cc2c(C3CCCNC3)cc(-c3ccccc3O)nc2[nH]c1=O (centres unmarked) [Example 25-1, ethyl 7-(2-hydroxyphenyl)-2-oxo-5-(3-piperidinyl)-1,2-dihydro-1,8-naphthyridine-3-carboxylate hydrochloride] |
| 1000 to 10000 nM | N#Cc1c(CCO)cc(-c2ccccc2O)nc1N [Example 1-44] |
| 1000 to 10000 nM | N#Cc1c(C2CCCNC2)cc(-c2c(O)cccc2OCCN2CCCCCC2)nc1N (centres unmarked) [Example 2-86] |
| 1000 to 10000 nM | N#Cc1c(C2CCCNC2)cc(-c2c(O)cccc2OCc2ccc(C(F)(F)F)cc2)nc1N (centres unmarked) [Example 2-10] |
| < 1000 nM | N#Cc1c(C2CCNCC2)cc(-c2c(O)cccc2OCC2CCC2)nc1N [Example 2-68] |
| 1000 to 10000 nM | N#Cc1c(C2CCCNC2)cc(-c2c(O)cccc2OCc2cccc(C(F)(F)F)c2)nc1N (centres unmarked) [Example 2-09] |
| 1000 to 10000 nM | N#Cc1c([C@@H](N)Cc2ccc(F)cc2)cc(-c2ccccc2O)nc1N [Example 1-30] |
| < 1000 nM | N#Cc1c(C2CCCC(N)C2)cc(-c2ccccc2O)nc1N (centres unmarked) [Example 1-23] |
